Reference: patent publication US12569536B2, “Macrocyclic peptides for targeted inhibition of autophagy” (Board of Regents, The University of Texas System, priority 2019, dated 2026)
“Also recorded” adds a separate entry of the source. Where two headings read alike, the source gives them in different places. Numbered stars: 1 amine (or outer) side, 2 acyl side, 3 side chain; on linkers, the order of the positions; unused ones are H or OH. Bridge positions count the residues as written; N and C are the ends. Square brackets hold non-standard residues; d marks the D form. Ends that are not written are not given here. Peptide text beside a SMILES is read from it. Glutaryl = O=C(CCCC(=O)[*:2])[*:1]; NMeA = CN[C@@H](C)C(=O)O

Experiments:
[1] = target: LC3 (Homo sapiens, UniProt Q9H492); experiment: Surface plasmon resonance binding to LC3
[2] = target: T1, LC3A (Homo sapiens, UniProt Q9H492); format: binding; conditions: peptide immobilized on solid phase
T1 construct: made in house

[3] = target: LC3B (Homo sapiens, UniProt Q9GZQ8); format: binding; conditions: peptide immobilized on solid phase
[4] = system: GABARAP1; format: binding; conditions: peptide immobilized on solid phase
[5] = target: GABARAP2 (Homo sapiens, UniProt P60520); format: binding; conditions: peptide immobilized on solid phase
[6] = target: Atg8 (Saccharomyces cerevisiae, UniProt P38182); format: binding, yeast; conditions: peptide immobilized on solid phase
[7] = target: T2, LC3C (Homo sapiens, UniProt Q9BXW4); format: binding; conditions: peptide immobilized on solid phase
T2 construct: made in house

[8] = target: T3, ubiquitin (Homo sapiens, UniProt P62987); format: binding; conditions: peptide immobilized on solid phase
T3 construct: made in house

[9] = system: Atg4B:LC3-AMC interaction; experiment: Atg4B cleavage of LC3-AMC (fluorescence); format: biochemical; conditions: LC3-AMC 120 nM, Atg4B 220 pM, increasing peptide concentrations
From the text: FIG. 9A—In naturally occurring LIMs, the most common amino acid in the leading position of the motif is tryptophan. […] The reason for this may be that there exists only one codon for tryptophan, making it much less likely to appear in a selected peptide than another W-site recognizing amino acid. Modifying the lead position of SUPR 4B (SEQ ID NO: 1) from phenylalanine to tryptophan was hypothesized to produce a peptide that obtains improved binding affinity towards LC3 by more closely mimicking a naturally occurring LIM. Tryptophan may also confer increased hydrophobicity, which may enhance cell uptake. […] Atg19 is provided in SEQ ID NO: 10, Atg32 is provided in SEQ ID NO: 11, Atg3 is provided in SEQ ID NO: 12, Atg4B is provided in SEQ ID NO: 13, p62 is provided in SEQ ID NO: 14, NBR1 is provided in SEQ ID NO: 15. […] FIG. 9D—LC3-AMC (120 nM) was incubated with Atg4B (220 pM) in the presence of SUPR4B1W or a non-functional scrambled variant at the concentrations shown. Cleavage of LC3-AMC was measured by increased fluorescence (λEx=380 nm, […]).
Cleavage of LC3-AMC was measured by increased fluorescence.

[10] = system: OVCAR8 cells; conditions: 50 μM peptide; for cell viability (MTT), DIRAS3-induced (autophagic) cells: OVCAR8, Dox-induced, 72 hours; for cell viability (MTT), non-DIRAS3 induced cells: OVCAR8, no Dox (non-autophagic), up to 72 hours
Protocol: (§1) FIGS. 6A-D: SUPR4B in the DIRAS3 autophagy model. FIGS. 6A&B—MTT viability assays with 50 M linear and cyclic SUPR 4B on non-DIRAS3 induced OVCAR8 (FIG. 6B) and SKOv3 (FIG. 6A) cells. […] Induction was performed using 1 g/mL DOX.
(§2) FIGS. 8A-F: SUPR4B in the DIRAS3 autophagy model. […] Inhibition of autophagy by the present compound were hypothesized to restore cellular growth. […] FIGS. 8A&B—MTT viability assays with 50 M linear and cyclic SUPR on non-DIRAS3 induced OVCAR8 (FIG. 8A) and SKOv3 (FIG. 8B) cells. […] FIGS. 8C&D—MTT viability assays on the effect of 50 M linear and cyclic LC3 SUPR4B on DIRAS3-induced OVCAR8 (FIG. 8C) and SKOv3 (FIG. 8D) cells. Induction was performed using 1 g/mL DOX.
(§3) After selection, the library was sequenced and lead compounds were subjected to thermodynamic and cellular assays to develop a structure-activity relationship modeling the interaction between the SUPR peptide and the target.

[11] = system: SKOv3 cells; experiment: MTT viability assay in DIRAS3 autophagy model; conditions: 50 μM peptide; for cell viability (MTT), DIRAS3-induced (autophagic) cells: SKOv3, Dox-induced, 72 hours; for cell viability (MTT), non-DIRAS3 induced cells: SKOv3, no Dox (non-autophagic), up to 72 hours
Protocol: as §1, §2, §3

[12] = system: SKOv3-ARHI cells; experiment: Western blotting of p62 and LC3I/LC3II in DIRAS3-induced cells; format: cell-based; conditions: peptide-treated, 72 h
Protocol: (§4) FIGS. 7A-B: SUPR4B in the DIRAS3 autophagy model.
(§5) FIGS. 8A-F: SUPR4B in the DIRAS3 autophagy model. […] Induction was performed using 1 g/mL DOX.

[13] = system: Hey cell line; experiment: MTT viability assay, cisplatin-resistant ovarian cancer cells; format: cell-based; conditions: cisplatin 10 μM + peptide, 48 hr
From the text: (§6) FIGS. 12A-D: SUPR4B1W sensitizes ovarian cancer cells to cisplatin.

[14] = system: OVCAR8 cell line; experiment: as above; format: cell-based; conditions: OVCAR8, cisplatin 10 μM + peptide, 48 hr
From the text: as §6

[15] = system: Hey cell line; experiment: Western blots of LC3-I/LC3-II and p62, cisplatin-resistant ovarian cancer cells; format: cell-based; conditions: 48 hr
From the text: as §6

[16] = system: OVCAR8 cell line; experiment: as above; format: cell-based; conditions: 48 hr
From the text: as §6

[17] = system: OVCAR8 orthotopic ovarian tumors; experiment: Orthotopic ovarian tumor model with carboplatin; format: in vivo; conditions: for final tumor mass, agent administered alone: SUPR peptide 10 mg/kg or carboplatin 25 mg/kg
Protocol: FIG. 13: SUPR4B1W sensitizes orthotopic ovarian tumors to carboplatin treatment. Mice were injected IP with 2 million OVCAR8 cells and treated three times per week for four weeks with vehicle control, SUPR peptide (10 mg/kg), carboplatin (25 mg/kg), or combination of SUPR peptide and carboplatin. At the end of four weeks, mice were sacrificed and tumors were dissected. […] For each vertical groups of data points, the top group represents Mouse Weight and the bottom group represents Tumor Weight.
In animal model experiments, mice were implanted with a cisplatin-resistant ovarian cancer cell line (OVCAR8) and treated with carboplatin, SUPR4B1W peptide, or carboplatin+SUPR4B1W peptide for 4 weeks. At the conclusion of the study, the mice were sacrificed and the mass of the intraperitoneal tumors measured.

[18] = target: T1, LC3A; experiment: Binding of radiolabeled individual peptide fusions to immobilized LC3A; conditions: for Binding analysis of clones on immobilized LC3 (FIG. 3E): radiolabeled peptide fusions
Protocol: A randomized 8-mer peptide library (with a diversity of 3.78×10^10 unique sequences) was designed, and SUPR peptide mRNA display selections incorporating N-methyl alanine and proteinase-K screening were performed against recombinant LC3 (FIGS. 3A-E). For this, milligram quantities of His6-LC3A were bacterially expressed and purified, chemically biotinylated, and immobilized on streptavidin agarose resin for binding selection. Prior to each round of selection, mRNA-fusion libraries were translated using an in vitro rabbit reticulocyte lysate system incorporating amber-codon nonsense suppression with N-methyl alanine. Fusions were cyclized between the side chain of lysine and the N-terminus and briefly exposed to proteinase K to eliminate any sequences particularly susceptible to proteolysis. Binding selections were carried out by incubating mRNA display libraries with the immobilized His6-LC3A followed by elution in SDS and PCR amplification. After seven rounds of binding selection, the number of PCR cycles required to recover the enriched dsDNA after each binding selection had reduced by 40% (FIG. 3C). […] Over 90% of sequences in the library contained an N-methyl alanine residue at a conserved position adjacent to the fixed lysine residue. […] The majority of sequences contained variations of the canonical Autophagy-Interacting Motif observed in natural LC3 adaptor proteins (FIG. 4). […] Binding was confirmed by incubation of radiolabeled individual peptide fusions with immobilized LC3A (FIG. 3E; Table 2).

[19] = system: OVCAR8-ARHI cells; experiment: Western blotting of p62 and LC3I/LC3II in DIRAS3-induced cells; format: cell-based; conditions: peptide-treated, 72 h
Protocol: as §4, §5

[20] = mice, IP OVCAR8, three times per week for four weeks

GABARAP2, sequence (P60520 1-116 limits assumed): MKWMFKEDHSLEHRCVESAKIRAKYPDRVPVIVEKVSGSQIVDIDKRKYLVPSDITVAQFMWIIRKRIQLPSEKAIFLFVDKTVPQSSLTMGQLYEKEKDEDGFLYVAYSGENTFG
Atg8, sequence (P38182 1-116): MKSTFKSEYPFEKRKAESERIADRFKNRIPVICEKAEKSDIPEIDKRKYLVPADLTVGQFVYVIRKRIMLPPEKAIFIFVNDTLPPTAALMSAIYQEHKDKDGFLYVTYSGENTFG
T2 sequence (Q9BXW4 1-126 limits assumed): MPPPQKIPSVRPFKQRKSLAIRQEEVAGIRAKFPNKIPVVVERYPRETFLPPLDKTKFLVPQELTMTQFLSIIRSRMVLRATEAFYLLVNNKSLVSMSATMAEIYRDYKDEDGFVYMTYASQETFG

CSCC[C@@H]1NC(=O)CCCC(=O)NCCCC[C@@H](C(=O)O)NC(=O)[C@H](C)N(C)C(=O)[C@H](C)NC(=O)[C@H]([C@@H](C)O)NC(=O)[C@H](C(C)C)NC(=O)[C@H](CCCNC(=N)N)NC(=O)[C@H](Cc2c[nH]cn2)NC(=O)[C@@H]2CCCN2C(=O)[C@H](Cc2c[nH]c3ccccc23)NC1=O [SUPR 4B1W] (MWPHRVTA[NMeA]K-OH; linker N-10 via Glutaryl)
improvement of apparent dissociation constant relative to SUPR4B [1]: ~10 fold
binding to LC3A [2]: bound tightly
binding to LC3B [3]: bound tightly
binding to GABARAP1 [4]: moderate off-target binding
binding to GABARAP2 [5]: moderate off-target binding
binding to yeast LC3 ortholog Atg8 [6]: moderate off-target binding
binding to LC3C [7]: Almost no binding
binding to ubiquitin [8]: Almost no binding
Cleavage of LC3-AMC by Atg4B (fluorescent signal) [9]: significantly decreased fluorescent signal
cell viability (MTT), DIRAS3-induced (autophagic) cells [10]: enhanced viability rescue phenotype
cell viability (MTT), DIRAS3-induced (autophagic) cells ([10]; listed as SUPR4B1W): almost completely restores cell viability
cell viability (MTT), non-DIRAS3 induced cells [10]: no change in cell viability
cell viability (MTT), DIRAS3-induced (autophagic) cells [11]: enhanced viability rescue phenotype
cell viability (MTT), DIRAS3-induced (autophagic) cells ([11]; listed as SUPR4B1W): almost completely restores cell viability
cell viability (MTT), non-DIRAS3 induced cells [11]: no change in cell viability
LC3I/LC3II ratio [12]: decreased LC3I/LC3II ratio
p62 protein levels [12]: accumulation of p62
cell viability (MTT) in combination with cisplatin [13]: re-sensitized the resistant cell lines to cisplatin
cell viability (MTT) in combination with cisplatin [14]: re-sensitized the resistant cell lines to cisplatin
p62 accumulation in combination with cisplatin ([15]; cisplatin 10 μM + peptide 50 µM): triggered accumulation of p62
LC3-I/LC3-II ratios in combination with cisplatin ([15]; cisplatin 10 μM + peptide): dramatically perturbed LC3-I/LC3-II ratios
p62 accumulation in combination with cisplatin ([16]; OVCAR8, cisplatin 10 μM + peptide 50 µM): triggered accumulation of p62
LC3-I/LC3-II ratios in combination with cisplatin ([16]; OVCAR8, cisplatin 10 μM + peptide): dramatically perturbed LC3-I/LC3-II ratios
number of mice with no detectable tumors, peptide combined with carboplatin ([17]; IP OVCAR8, four weeks, peptide 10 mg/kg + carboplatin 25 mg/kg): 6 mice
final tumor mass, agent administered alone [17, 20]: no change in tumor volume
final tumor mass, peptide combined with carboplatin ([17]; mice, IP OVCAR8, three times per week for four weeks, peptide 10 mg/kg + carboplatin 25 mg/kg): almost completely tumor-free; also recorded: significantly reduced tumor mass

MNARSLRDZK (MNARSLRD[NMeA]K; bridge N-10) [Clone 25F]
Binding analysis of clones on immobilized LC3 (FIG. 3E) [18]: selective LC3 binding

MYTRRVRLZK (MYTRRVRL[NMeA]K; bridge N-10) [Clone 25E]
% of radiolabeled peptide-fusions bound to immobilized LC3 [18]: 3%

MLSDIPVNDK [Clone 4E]
Binding analysis of clones on immobilized LC3 (FIG. 3E) [18]: selective LC3 binding

MLARSLRDZK (MLARSLRD[NMeA]K; bridge N-10) [Clone 25I]
% of radiolabeled peptide-fusions bound to immobilized LC3 [18]: 4%

MYARSLRDZK (MYARSLRD[NMeA]K; bridge N-10) [Clone 25A]
Binding analysis of clones on immobilized LC3 (FIG. 3E) [18]: selective LC3 binding

MFSHRVTLZK (MFSHRVTL[NMeA]K; bridge N-10) [Clone 25C]
Binding analysis of clones on immobilized LC3 (FIG. 3E) [18]: selective LC3 binding

CSCC[C@@H]1NC(=O)CCCC(=O)NCCCC[C@@H](C(=O)O)NC(=O)[C@H](C)N(C)C(=O)[C@H](C)NC(=O)[C@H]([C@@H](C)O)NC(=O)[C@H](C(C)C)NC(=O)[C@H](CCCNC(=N)N)NC(=O)[C@H](Cc2c[nH]cn2)NC(=O)[C@@H]2CCCN2C(=O)[C@H](Cc2ccccc2)NC1=O [Clone 4B, MFPHRVTAZK] (MFPHRVTA[NMeA]K-OH; linker N-10 via Glutaryl)
Binding analysis of clones on immobilized LC3 (FIG. 3E) [18]: selective LC3 binding; also recorded: nearly quantitative binding
cell viability (MTT), DIRAS3-induced (autophagic) cells [10]: significant rescue of viability
cell viability (MTT), non-DIRAS3 induced cells [10]: no statistically significant effect on cell viability
cell viability (MTT), DIRAS3-induced (autophagic) cells [11]: significant rescue of viability
cell viability (MTT), non-DIRAS3 induced cells [11]: no statistically significant effect on cell viability
LC3I/LC3II ratio [19]: decreased LC3I/LC3II ratio
p62 protein levels [19]: increase in p62 protein levels
LC3I/LC3II ratio [12]: decreased LC3I/LC3II ratio
p62 protein levels [12]: increase in p62 protein levels

CCN(CC)CCCC(C)Nc1ccnc2cc(Cl)ccc12 (stereo not drawn) [chloroquine, reference compound]
cell viability (MTT), DIRAS3-induced (autophagic) cells [10]: did not result in a statistically significant increase in cell viability
cell viability (MTT), DIRAS3-induced (autophagic) cells [11]: did not result in a statistically significant increase in cell viability

MSLHRVTVZK (MSLHRVTV[NMeA]K; bridge N-10) [Clone 4C]
% of radiolabeled peptide-fusions bound to immobilized LC3 [18]: 1%

N.N.O=C([O-])C1(C(=O)[O-])CCC1.[Pt+2] [carboplatin, reference compound]
final tumor mass, agent administered alone [17, 20]: expected reduction in tumor volume
